Results from ChEMBL document CHEMBL1208672, “Novel 8-arylated purines as inhibitors of glycogen synthase kinase” (Eur J Med Chem, 2010).

Columns and labels:
[1] = target: T1, Cyclin-dependent kinase 5/CDK5 activator 1 (Homo sapiens) (UniProt Q00535+Q15078); experiment: Inhibition of CDK5/p25 assessed as residual activity at 1 uM relative to control; type: protein-complex assay
[2] = target: Glycogen synthase kinase-3 alpha (Homo sapiens) (UniProt P49840); experiment: Inhibition of human GSK3alpha assessed as residual activity at 1 uM relative to control
[3] = target: T2, Glycogen synthase kinase-3 beta (Homo sapiens, UniProt P49841)
Target sequence in this assay (P49841 whole entry): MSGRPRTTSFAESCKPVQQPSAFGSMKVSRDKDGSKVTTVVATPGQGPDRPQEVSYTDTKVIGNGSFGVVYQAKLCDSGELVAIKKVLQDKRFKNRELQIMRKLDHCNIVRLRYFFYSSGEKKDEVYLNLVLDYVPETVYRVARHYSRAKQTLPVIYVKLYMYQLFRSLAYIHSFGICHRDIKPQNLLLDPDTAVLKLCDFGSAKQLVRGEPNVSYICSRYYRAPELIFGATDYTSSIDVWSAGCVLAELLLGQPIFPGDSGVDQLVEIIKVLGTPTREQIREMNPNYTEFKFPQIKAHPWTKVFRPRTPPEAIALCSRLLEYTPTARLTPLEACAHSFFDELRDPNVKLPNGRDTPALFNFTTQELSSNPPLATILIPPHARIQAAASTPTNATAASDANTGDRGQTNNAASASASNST

[4] = target: Insulin-like growth factor 1 receptor (Homo sapiens) (UniProt P08069); experiment: Inhibition of IGF1R assessed as residual activity at 10 uM relative to control
[5] = target: Epidermal growth factor receptor (Homo sapiens) (UniProt P00533); experiment: Inhibition of EGFR assessed as residual activity at 10 uM relative to control
[6] = target: T2, Glycogen synthase kinase-3 beta; experiment: Inhibition of human GSK3-beta assessed as residual activity at 10 uM relative to control
Target sequence in this assay (P49841 whole entry, looked up): as the sequence (P49841 whole entry) above

[7] = target: Casein kinase I isoform alpha (Homo sapiens) (UniProt P48729); experiment: Inhibition of CK1alpha1 assessed as residual activity at 10 uM relative to control
[8] = target: Mitogen-activated protein kinase 8 (Homo sapiens) (UniProt P45983); experiment: Inhibition of JNK1 assessed as residual activity at 10 uM relative to control
[9] = target: Mitogen-activated protein kinase 3 (Homo sapiens) (UniProt P27361); experiment: Inhibition of ERK1 at 10 uM relative to control; design: scale not given: the % may be the effect or the level left
[10] = target: Casein kinase II subunit alpha (Homo sapiens) (UniProt P68400); experiment: Inhibition of CK2alpha assessed as residual activity at 10 uM relative to control
[11] = target: MAP kinase-activated protein kinase 2 (Homo sapiens) (UniProt P49137); experiment: Inhibition of MAPKAPK2 assessed as residual activity at 10 uM relative to control
[12] = target: T3, Tyrosine-protein kinase receptor TYRO3 (Homo sapiens) (UniProt Q06418); experiment: Inhibition of TYRO3/SKY assessed as residual activity at 10 uM relative to control
T3 sequence (whole entry): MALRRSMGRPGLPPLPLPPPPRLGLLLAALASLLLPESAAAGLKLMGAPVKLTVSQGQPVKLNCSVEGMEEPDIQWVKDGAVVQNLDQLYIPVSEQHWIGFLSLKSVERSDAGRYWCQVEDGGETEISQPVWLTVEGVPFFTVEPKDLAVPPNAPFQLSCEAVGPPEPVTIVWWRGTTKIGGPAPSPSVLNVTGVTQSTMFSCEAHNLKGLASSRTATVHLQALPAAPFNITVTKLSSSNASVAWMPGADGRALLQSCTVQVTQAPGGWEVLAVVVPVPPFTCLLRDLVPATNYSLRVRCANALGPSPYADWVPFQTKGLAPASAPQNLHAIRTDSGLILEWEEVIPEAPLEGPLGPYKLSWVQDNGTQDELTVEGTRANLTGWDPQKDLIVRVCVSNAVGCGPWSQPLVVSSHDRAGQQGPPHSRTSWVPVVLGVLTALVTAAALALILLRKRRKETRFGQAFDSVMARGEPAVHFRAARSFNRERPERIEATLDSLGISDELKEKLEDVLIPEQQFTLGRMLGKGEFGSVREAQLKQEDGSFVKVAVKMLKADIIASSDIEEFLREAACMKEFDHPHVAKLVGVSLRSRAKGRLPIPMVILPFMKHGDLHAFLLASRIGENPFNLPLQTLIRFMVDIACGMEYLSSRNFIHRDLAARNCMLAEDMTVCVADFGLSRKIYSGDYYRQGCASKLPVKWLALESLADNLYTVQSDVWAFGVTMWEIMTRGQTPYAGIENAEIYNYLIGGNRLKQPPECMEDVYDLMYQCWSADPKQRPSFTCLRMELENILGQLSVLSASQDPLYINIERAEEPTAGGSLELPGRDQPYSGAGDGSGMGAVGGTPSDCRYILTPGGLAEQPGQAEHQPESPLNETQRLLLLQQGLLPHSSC

[13] = target: T1, Cyclin-dependent kinase 5/CDK5 activator 1 (Homo sapiens); experiment: Inhibition of CDK5/p25 assessed as residual activity at 10 uM relative to control; type: protein-complex assay

Sequence of Glycogen synthase kinase-3 alpha (Homo sapiens) (P49840 2-483 limits assumed): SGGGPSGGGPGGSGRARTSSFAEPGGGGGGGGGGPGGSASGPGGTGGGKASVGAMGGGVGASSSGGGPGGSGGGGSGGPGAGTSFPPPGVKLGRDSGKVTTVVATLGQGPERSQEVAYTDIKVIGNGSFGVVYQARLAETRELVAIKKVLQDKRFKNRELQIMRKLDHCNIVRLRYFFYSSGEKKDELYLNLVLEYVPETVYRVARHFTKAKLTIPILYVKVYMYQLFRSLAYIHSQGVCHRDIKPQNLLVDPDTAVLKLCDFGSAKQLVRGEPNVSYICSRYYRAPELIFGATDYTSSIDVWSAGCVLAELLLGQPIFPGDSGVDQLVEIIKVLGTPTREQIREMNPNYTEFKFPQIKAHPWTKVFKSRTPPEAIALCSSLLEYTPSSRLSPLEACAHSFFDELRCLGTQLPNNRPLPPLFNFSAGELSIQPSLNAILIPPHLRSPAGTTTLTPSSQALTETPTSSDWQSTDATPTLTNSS
T1 sequence (Q00535 whole entry): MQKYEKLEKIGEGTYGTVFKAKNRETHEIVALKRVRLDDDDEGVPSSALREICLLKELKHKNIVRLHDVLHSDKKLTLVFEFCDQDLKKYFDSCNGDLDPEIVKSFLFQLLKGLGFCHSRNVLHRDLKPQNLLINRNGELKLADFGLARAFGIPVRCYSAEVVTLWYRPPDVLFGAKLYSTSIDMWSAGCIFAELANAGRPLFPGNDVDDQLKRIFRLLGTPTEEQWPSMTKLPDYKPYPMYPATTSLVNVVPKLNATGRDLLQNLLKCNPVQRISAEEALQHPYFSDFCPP
T1 sequence (Q15078 99-307 partner limits assumed): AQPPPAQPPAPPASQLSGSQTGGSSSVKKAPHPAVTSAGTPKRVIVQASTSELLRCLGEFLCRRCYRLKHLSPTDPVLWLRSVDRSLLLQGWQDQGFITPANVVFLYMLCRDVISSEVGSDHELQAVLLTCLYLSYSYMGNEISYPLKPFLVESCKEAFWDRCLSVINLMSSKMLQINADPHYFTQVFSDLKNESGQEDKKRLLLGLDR
Sequence of Mitogen-activated protein kinase 8 (Homo sapiens) (P45983 whole entry): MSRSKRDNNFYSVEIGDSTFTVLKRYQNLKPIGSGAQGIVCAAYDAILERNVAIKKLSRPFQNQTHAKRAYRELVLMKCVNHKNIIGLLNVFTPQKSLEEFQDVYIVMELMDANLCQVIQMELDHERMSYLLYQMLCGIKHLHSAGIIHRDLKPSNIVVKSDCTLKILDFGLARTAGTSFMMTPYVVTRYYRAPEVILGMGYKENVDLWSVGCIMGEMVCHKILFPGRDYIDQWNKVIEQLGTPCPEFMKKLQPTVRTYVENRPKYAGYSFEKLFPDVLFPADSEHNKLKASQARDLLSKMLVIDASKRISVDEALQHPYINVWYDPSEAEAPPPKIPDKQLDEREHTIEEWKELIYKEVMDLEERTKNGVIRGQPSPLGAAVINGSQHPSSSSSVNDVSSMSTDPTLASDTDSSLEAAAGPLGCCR
Sequence of Mitogen-activated protein kinase 3 (Homo sapiens) (P27361 whole entry): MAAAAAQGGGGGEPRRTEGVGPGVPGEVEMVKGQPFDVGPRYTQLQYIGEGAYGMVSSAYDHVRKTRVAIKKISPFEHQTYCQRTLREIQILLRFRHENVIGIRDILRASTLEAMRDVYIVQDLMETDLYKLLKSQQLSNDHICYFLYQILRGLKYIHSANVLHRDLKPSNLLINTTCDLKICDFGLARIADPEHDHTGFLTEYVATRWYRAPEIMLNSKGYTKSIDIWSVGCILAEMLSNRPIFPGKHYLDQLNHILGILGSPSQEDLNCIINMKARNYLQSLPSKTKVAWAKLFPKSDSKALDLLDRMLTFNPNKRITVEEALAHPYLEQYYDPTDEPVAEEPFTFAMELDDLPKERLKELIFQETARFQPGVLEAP
Sequence of Casein kinase I isoform alpha (Homo sapiens) (P48729 2-337 limits assumed): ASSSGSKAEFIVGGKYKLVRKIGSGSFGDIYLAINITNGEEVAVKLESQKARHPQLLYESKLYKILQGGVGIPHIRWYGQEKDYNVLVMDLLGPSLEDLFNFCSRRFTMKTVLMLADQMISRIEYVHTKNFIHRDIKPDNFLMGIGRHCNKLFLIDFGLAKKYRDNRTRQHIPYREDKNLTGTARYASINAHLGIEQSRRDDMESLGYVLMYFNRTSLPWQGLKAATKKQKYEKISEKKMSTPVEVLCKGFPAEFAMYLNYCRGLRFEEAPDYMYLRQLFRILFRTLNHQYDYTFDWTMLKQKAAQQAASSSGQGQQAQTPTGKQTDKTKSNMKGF
Sequence of Casein kinase II subunit alpha (Homo sapiens) (P68400 whole entry, looked up): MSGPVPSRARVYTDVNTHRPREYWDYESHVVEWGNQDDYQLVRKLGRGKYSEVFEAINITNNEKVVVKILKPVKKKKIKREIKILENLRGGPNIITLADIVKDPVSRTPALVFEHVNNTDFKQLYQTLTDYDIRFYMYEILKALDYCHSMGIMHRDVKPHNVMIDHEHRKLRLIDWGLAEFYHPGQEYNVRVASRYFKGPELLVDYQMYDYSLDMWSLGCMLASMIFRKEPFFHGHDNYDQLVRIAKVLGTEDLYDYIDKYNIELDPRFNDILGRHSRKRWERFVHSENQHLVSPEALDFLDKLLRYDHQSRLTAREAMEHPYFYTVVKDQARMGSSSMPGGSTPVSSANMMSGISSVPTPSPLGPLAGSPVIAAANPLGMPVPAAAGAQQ
Sequence of Epidermal growth factor receptor (Homo sapiens) (P00533 whole entry): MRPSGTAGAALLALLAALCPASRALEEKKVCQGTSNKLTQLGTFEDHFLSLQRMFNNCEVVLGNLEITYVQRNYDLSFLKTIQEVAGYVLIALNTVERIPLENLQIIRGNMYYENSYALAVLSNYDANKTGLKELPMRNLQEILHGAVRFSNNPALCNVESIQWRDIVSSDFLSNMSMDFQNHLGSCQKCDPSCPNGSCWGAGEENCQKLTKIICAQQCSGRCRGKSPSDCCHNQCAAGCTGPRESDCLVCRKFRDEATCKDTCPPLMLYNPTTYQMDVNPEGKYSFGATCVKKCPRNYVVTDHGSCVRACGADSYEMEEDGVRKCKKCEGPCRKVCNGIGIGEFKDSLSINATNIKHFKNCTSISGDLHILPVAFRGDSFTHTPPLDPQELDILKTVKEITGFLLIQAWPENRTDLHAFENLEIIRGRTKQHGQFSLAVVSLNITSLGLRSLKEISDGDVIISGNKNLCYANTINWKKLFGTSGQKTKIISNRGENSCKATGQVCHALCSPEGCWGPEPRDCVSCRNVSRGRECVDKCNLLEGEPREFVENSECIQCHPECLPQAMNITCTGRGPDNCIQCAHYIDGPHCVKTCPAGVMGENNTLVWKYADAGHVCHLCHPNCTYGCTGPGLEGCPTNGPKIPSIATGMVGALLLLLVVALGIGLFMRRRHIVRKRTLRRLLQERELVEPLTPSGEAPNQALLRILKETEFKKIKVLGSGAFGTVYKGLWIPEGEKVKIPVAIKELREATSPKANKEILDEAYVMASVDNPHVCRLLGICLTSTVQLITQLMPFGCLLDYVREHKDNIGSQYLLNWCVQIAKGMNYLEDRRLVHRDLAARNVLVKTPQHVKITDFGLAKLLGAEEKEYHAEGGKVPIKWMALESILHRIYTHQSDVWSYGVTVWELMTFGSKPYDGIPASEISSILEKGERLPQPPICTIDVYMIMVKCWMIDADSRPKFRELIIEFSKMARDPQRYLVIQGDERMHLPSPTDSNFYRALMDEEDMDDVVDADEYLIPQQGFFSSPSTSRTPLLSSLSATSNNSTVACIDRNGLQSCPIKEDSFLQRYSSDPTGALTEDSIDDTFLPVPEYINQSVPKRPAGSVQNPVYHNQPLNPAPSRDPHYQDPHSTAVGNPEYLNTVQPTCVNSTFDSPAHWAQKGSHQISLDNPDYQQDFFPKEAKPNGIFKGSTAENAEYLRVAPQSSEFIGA
Sequence of MAP kinase-activated protein kinase 2 (Homo sapiens) (P49137 whole entry, looked up): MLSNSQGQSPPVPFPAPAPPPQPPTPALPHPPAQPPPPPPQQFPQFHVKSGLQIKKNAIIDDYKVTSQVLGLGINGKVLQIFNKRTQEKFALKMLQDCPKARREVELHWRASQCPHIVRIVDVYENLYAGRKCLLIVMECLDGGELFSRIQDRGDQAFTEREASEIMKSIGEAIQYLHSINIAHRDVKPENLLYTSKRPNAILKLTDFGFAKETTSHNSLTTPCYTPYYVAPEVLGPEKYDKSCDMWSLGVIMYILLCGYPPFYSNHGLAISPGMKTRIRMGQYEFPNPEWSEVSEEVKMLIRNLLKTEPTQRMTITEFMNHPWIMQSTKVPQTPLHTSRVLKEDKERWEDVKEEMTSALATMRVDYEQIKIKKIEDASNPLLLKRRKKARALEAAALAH

| Activity [1] | Activity [2] | SMILES | also measured |
| --- | --- | --- | --- |
| 63% | 2% | N#Cc1cccc(-c2nc3c(Nc4ccccc4)ncnc3[nH]2)c1 |  |
| 100% | 17% | O=C(Nc1ncnc2[nH]c(-c3cccc(Cl)c3)nc12)C1CC1 | IC50 [3]: 365 nM |
| 101% | 99% | C(=C\c1nc2c(NCCN3CCOCC3)ncnc2[nH]1)/c1ccccc1 |  |
| 102% |  | CC(C)CC(=O)Nc1ncnc2[nH]c(-c3ccccc3)nc12 |  |
| 102% | 61% | O=C(Nc1ncnc2[nH]c(-c3cccnc3)nc12)c1ccccc1 |  |
| 85% |  | CN(C)c1ncnc2[nH]c(-c3ccccc3)nc12 |  |
| 100% |  | c1cncc(-c2nc3c(N4CCCC4)ncnc3[nH]2)c1 |  |
| 99% |  | CC(C)C(=O)Nc1ncnc2[nH]c(-c3ccccc3)nc12 |  |
| 102% | 69% | N#Cc1cccc(-c2nc3c(NC(=O)c4ccccc4)ncnc3[nH]2)c1 |  |
| 100% | 58% | C(=C\c1nc2c(Nc3ccccc3)ncnc2[nH]1)/c1ccccc1 |  |
| 107% | 43% | COc1ccc(C(=O)Nc2ncnc3[nH]c(-c4cccnc4)nc23)cc1 |  |
| 102% | 67% | O=C(Nc1ncnc2[nH]c(-c3ccccc3)nc12)c1ccccc1 |  |
| 102% | 71% | COc1ccc(C(=O)Nc2ncnc3[nH]c(-c4cccc(Cl)c4)nc23)cc1 |  |
| 102% | 60% | O=C(Nc1ncnc2[nH]c(-c3cccc(Cl)c3)nc12)c1ccccc1 |  |
| 102% |  | c1cncc(CNc2ncnc3[nH]c(-c4cccnc4)nc23)c1 |  |
| 101% |  | c1cncc(-c2nc3c(OCC4CCCCC4)ncnc3[nH]2)c1 |  |
| 100% | 55% | O=C(Nc1ncnc2[nH]c(/C=C/c3ccccc3)nc12)C1CC1 |  |
| 101% |  | CC(=O)Nc1ncnc2[nH]c(-c3ccccc3)nc12 |  |
| 103% |  | CCCCC(=O)Nc1ncnc2[nH]c(-c3ccccc3)nc12 |  |
| 93% |  | COc1ccc(CNc2ncnc3[nH]c(-c4ccccc4)nc23)cc1 |  |
| 101% | 92% | O=C(Nc1ncnc2[nH]c(/C=C/c3ccccc3)nc12)c1cccc(Br)c1 |  |
| 103% | 55% | CCCCC(=O)Nc1ncnc2[nH]c(/C=C/c3ccccc3)nc12 |  |
| 99% |  | Cn1c(-c2ccccc2)nc2c(NCc3cccnc3)ncnc21 |  |
| 98% | 49% | CC(=O)Nc1ncnc2[nH]c(-c3ccc4ccccc4c3)nc12 |  |
| 54% |  | c1ccc(-c2nc3c(OC4CCCC4)ncnc3[nH]2)cc1 |  |
| 100% |  | COc1ccc(CNc2ncnc3c2nc(-c2ccccc2)n3C)cc1 |  |
| 101% |  | O=C(Nc1ncnc2[nH]c(-c3ccc4ccccc4c3)nc12)C1CC1 | Activity [4]: 100%; Activity [5]: 91.6%; Activity [6]: 18.4%; Activity [7]: 91.9%; Activity [8]: 99.2%; Activity [9]: 99.4%; Activity [10]: 59.5%; Activity [11]: 101%; Activity [12]: 78.2%; Activity [13]: 91.4% |
| 104% | 96% | COc1ccc(C(=O)Nc2ncnc3[nH]c(/C=C/c4ccccc4)nc23)cc1 |  |
| 67% |  | O=C(Nc1ncnc2[nH]c(-c3ccccc3)nc12)C1CCCCN1 (centres undefined) |  |

Second part, the molecule before the results:

| SMILES | Activity [1] | Activity [2] | also measured |
| --- | --- | --- | --- |
| Cn1c(-c2ccccc2)nc2c(N3CCCC3)ncnc21 | 100% |  |  |
| c1ccc(CNc2ncnc3[nH]c(-c4ccccc4)nc23)cc1 | 84% |  |  |
| Cn1c(-c2cccc(F)c2)nc2c(NC(=O)C3CC3)ncnc21 | 99% |  |  |
| O=C(Nc1ncnc2[nH]c(-c3ccc4ccccc4c3)nc12)c1ccccc1 | 100% | 83% |  |
| Cn1c(-c2cccc(F)c2)nc2c(NCc3ccccc3)ncnc21 | 96% |  |  |
| Cn1c(-c2ccc([N+](=O)[O-])cc2)nc2ncnc(N3CCCC3)c21 | 101% |  |  |
| C(=C\c1nc2c(N3CCCC3)ncnc2[nH]1)/c1ccccc1 | 101% | 87% |  |
| COc1ccc(CNc2ncnc3c2nc(-c2cccc(F)c2)n3C)cc1 | 96% |  |  |
| c1ccc(Nc2ncnc3nc(-c4ccccc4)[nH]c23)cc1 |  |  | IC50 [3]: 16 nM |
| N#Cc1cccc(-c2nc3ncnc(Nc4ccccc4)c3[nH]2)c1 |  |  | IC50 [3]: 26 nM |
| CCCCC(=O)Nc1ncnc2[nH]c(-c3cccc(C#N)c3)nc12 | 101% | 34% |  |
| C(=C\c1nc2c(NCc3cccnc3)ncnc2[nH]1)/c1ccccc1 | 96% | 84% |  |
| N#Cc1cccc(-c2nc3c(NC(=O)C4CC4)ncnc3[nH]2)c1 | 103% | 30% | IC50 [3]: 781 nM |
| CCCCC(=O)Nc1ncnc2nc(-c3cccc(C#N)c3)[nH]c12 |  |  | IC50 [3]: 1220 nM |
| O=C(Nc1ncnc2nc(-c3ccc4ccccc4c3)[nH]c12)C1CC1 |  |  | IC50 [3]: 169 nM |
| O=C(Nc1ncnc2[nH]c(/C=C/c3ccccc3)nc12)c1ccccc1 | 104% | 47% |  |

| SMILES | Activity [1] | Activity [2] | also measured |
| --- | --- | --- | --- |
| COc1ccc(CNc2ncnc3nc(-c4cccc(F)c4)n(C)c23)cc1 | 99% |  |  |
| CC(=O)Nc1ncnc2[nH]c(-c3cccc(C#N)c3)nc12 | 103% | 79% |  |
| COc1ccc(-c2nc3ncnc(NCc4ccccc4)c3n2C)cc1 | 102% |  |  |
| CN[C@@H]1C[C@H]2O[C@@](C)([C@@H]1OC)n1c3ccccc3c3c4c(c5c6ccccc6n2c5c31)C(=O)NC4 | 98.4% |  |  |
| O=C(Nc1ncnc2[nH]c(-c3ccccc3)nc12)C1CCCN1 (centres undefined) | 93% |  |  |
| COc1ccc(CNc2ncnc3nc(-c4ccc(Cl)cc4)n(C)c23)cc1 | 105% |  |  |
| c1ccc(Nc2ncnc3[nH]c(-c4ccccc4)nc23)cc1 | 63% | 5% | Activity [4]: 96.2%; Activity [5]: 32.7%; Activity [6]: 18.6%; Activity [7]: 100%; Activity [8]: 93.3%; Activity [9]: 110%; Activity [10]: 77%; Activity [11]: 78.2%; Activity [12]: 96.7%; Activity [13]: 59.8% |
| CCCCC(=O)Nc1ncnc2[nH]c(-c3ccc4ccccc4c3)nc12 | 102% | 31% | IC50 [3]: > 20000 nM |
| Cn1c(-c2ccc([N+](=O)[O-])cc2)nc2ncnc(NCc3ccccc3)c21 | 101% |  |  |
| c1cncc(-c2nc3c(N4CCOCC4)ncnc3[nH]2)c1 | 71% |  |  |
| COc1ccc(CNc2ncnc3[nH]c(-c4cccnc4)nc23)cc1 | 95% |  |  |
| Cn1c(-c2ccc(Cl)cc2)nc2ncnc(N3CCCC3)c21 | 97% |  |  |
| c1cncc(-c2nc3c(OC4CCCC4)ncnc3[nH]2)c1 | 83% | 57% |  |
| c1ccc(-c2nc3c(NCc4cccnc4)ncnc3[nH]2)cc1 | 84% |  |  |
| Cn1c(-c2cccc(F)c2)nc2c(N3CCCC3)ncnc21 | 100% |  |  |
| O=C(Nc1ncnc2[nH]c(-c3ccccc3)nc12)C1CC1 | 96% |  |  |
